{"source": "paper PMC9974463", "about": "(Proceedings of the National Academy of Sciences of the …, 2023)", "key": {"[1]": {"target": "AbCphZ E251A (Acinetobacter baylyi DSM587)", "assay": "ITC"}, "[2]": {"target": "T1, AbCphZ (Acinetobacter baylyi, UniProt Q6FCQ4, E251A)", "T1 sequence (Q6FCQ4 1-383 E251A)": "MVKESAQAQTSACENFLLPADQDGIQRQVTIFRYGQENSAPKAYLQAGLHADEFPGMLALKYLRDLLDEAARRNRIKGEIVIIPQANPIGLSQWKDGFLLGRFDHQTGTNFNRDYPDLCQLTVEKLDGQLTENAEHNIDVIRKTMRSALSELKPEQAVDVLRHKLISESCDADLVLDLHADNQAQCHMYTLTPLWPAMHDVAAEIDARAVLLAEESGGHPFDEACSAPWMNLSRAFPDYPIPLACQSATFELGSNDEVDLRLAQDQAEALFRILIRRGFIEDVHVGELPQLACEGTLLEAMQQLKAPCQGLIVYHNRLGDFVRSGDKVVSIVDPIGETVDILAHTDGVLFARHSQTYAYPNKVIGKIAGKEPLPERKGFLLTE", "assay": "isothermal titration calorimetry", "assay_type": "binding"}, "[3]": {"target": "Acinetobacter baylyi cyanophycin dipeptide hydrolase CphZ (Acinetobacter baylyi DSM587)", "assay": "SEC"}, "[4]": {"target": "T2, PaAotO (Pseudomonas aeruginosa, UniProt O50184)", "T2 sequence (O50184 1-370)": "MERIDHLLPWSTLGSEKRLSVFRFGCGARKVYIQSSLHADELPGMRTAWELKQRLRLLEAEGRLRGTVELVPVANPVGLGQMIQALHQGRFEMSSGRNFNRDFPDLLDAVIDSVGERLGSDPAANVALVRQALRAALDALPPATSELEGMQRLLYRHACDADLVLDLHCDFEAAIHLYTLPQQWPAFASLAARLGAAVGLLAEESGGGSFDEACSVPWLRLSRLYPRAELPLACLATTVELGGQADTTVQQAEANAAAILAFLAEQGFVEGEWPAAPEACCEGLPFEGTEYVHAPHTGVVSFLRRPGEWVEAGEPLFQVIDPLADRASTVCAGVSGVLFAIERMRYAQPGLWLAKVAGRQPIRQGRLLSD", "assay": "Arg release coupled assay", "assay_type": "biochemical", "details": "1 mM substrate, 500 nM enzyme"}}, "data": [{"compound": "β-Asp-Arg dipeptide", "values": [{"measurement": "Kd", "setting": "[1]", "result": 7.6, "unit": "µM"}]}, {"compound": "N=C(N)NCCC[C@H](N)C(=O)O", "note": "[Arg]", "values": [{"measurement": "Kd", "setting": "[2]", "result": "471 ± 16.8", "unit": "µM"}]}, {"compound": "Acinetobacter baylyi cyanophycin dipeptide hydrolase CphZ (enzyme)", "values": [{"measurement": "stoichiometry N", "setting": "[3]", "result": 2}]}, {"compound": "N=C(N)NCCC[C@H](NC(=O)C[C@H](N)C(=O)O)C(=O)O", "note": "[β-Asp-Arg]", "values": [{"measurement": "Arg release coupled assay (340 nm)", "setting": "[4]", "result": "AotO is specific for β-Asp-Arg and hydrolyzes it at a rate comparable to AbCphZ"}, {"measurement": "Kd", "setting": "[2]", "result": "7.6 ± 0.1", "unit": "µM"}]}]}
